From US7199286B2, “Plant-derived novel pathogen and SAR-induction chemical induced promoters, and fragments thereof” (Syngenta Participations AG, priority 1999, dated 2007)

System: NI16 promoter fragment 544 bp
Assay: GUS florescence assay of promoter::GUS plants after SA application, NI16 544 bp fragment
Assay type: in vivo, Arabidopsis
Settings: 5 mM SA spray
Source text: A binary promoter::reporter plasmid (pNOV2374) for Arabidopsis transformation was constructed. The regulatory/promoter sequence was fused to the GUS reporter gene (Jefferson et al. (1987) EMBO J 6: 3901-3907) by recombination using […] Technology according to the manufacturer's protocol as described in the Instruction Manual (LifeTechnologies, Rockville, Md.). The construct was then transformed into Agrobacterium tumefaciens strains by electroporation. pNOV2374 is a binary vector with a VS1 origin of replication, a copy of the Agrobacterium virg gene in the backbone, and a Basta® resistance selectable marker cassette between the left and right border sequences of the T-DNA. The Basta® selectable marker cassette comprises the Agrobacterium tumefaciens manopine synthase promoter (AtMas) (Barker et al., Plant Mol. Biol. 2, 335-350 (1983)) operably linked to the gene encoding Basta® resistance (i.e., the “BAR” gene, phosphinothricin acetyl transferase) (White et al., Nucl Acids Res 18: 1062 (1990)) and the 35S terminator. The AtMas promoter, the BAR coding sequence, and the 35S terminator are located at nt 4211 to nt 4679, nt 4680 to nt 5228, and nt 5263 to nt 5488, respectively, of pNOV2374. The vector contains […] recombination components, which were introduced into the binary vector backbone by ligating a blunt-ended cassette containing attR sites, ccdB, and a cholramphenicol resistance marker using the […] Vector Conversion System (LifeTechnologies, Rockville, Md.). The […] cassette was located between nt 126 and 1818 of pNOV2374. The promoter cassettes were inserted through an LR recombination reaction whereby the DNA sequence of pNOV2374 between nt 126 and nt 1818 were removed and replaced with the promoter of interest flanked by att sequences. […] The GIG gene (SEQ ID NO:29) contains the ST-LS1 intron from Solanum tuberosum at nt 385 to nt 576 of GUS (obtained from Dr. Stanton […], Purdue University, and described in Narasimhulu, et al. (1996) Plant Cell 8: 873-886.). […] The treatment was applied as a fine mist to the leaves. Leaf tissue was harvested from plants for the β-glucuronidase (GUS) florescence assay prior to SA application (T0) and at various time intervals after application. For quantitative analysis of promoter activity following induction treatments or in various Arabidopsis tissues and organs, GUS expression is measured florometrically. Tissue samples were harvested and ground in ice cold GUS extraction buffer (50 mM Na2HPO4 pH 7.0, 5 mM DTT, 1 mM Na2EDTA, 0.1% TritonX100, 0.1% sarcosyl). Ground samples were spun in a microfuge at 10,000 rpm for 15 minutes at 4° C. Following centrifugation, the supernatant was removed for the GUS assay and for a protein concentration determination. To measure GUS activity, the plant extract was assayed in GUS assay buffer (50 mM Na2HPO4 pH 7.0, 5 mM DTT, 1 mM Na2EDTA, 0.1% TritonX100, 0.1% sarcosyl, 1 mM 4-Methylumbelliferyl-beta-D-glucuronic acid dihydrate (MUG)), pre-warmed to 37° C. Reactions were incubated, and 100 uL aliquots were removed at 10 minute intervals over 30 minutes to stop the reaction by adding the 100 uL aliquots to tubes containing 900 uL of 2% Na2CO3. The stopped reactions were then read on a Tecan Spectroflourometer at 365 nm excitation and 455 emission wavelengths. Protein concentrations were determined using the BCA assay following the manufacturer's protocol. GUS activity is expressed as pmol MU/mg protein/min.

Compound: O=C(O)c1ccccc1O [SA, salicylic acid]
- GUS Activity Induced by SA (2 h): 52.2 pmol/mg protein/min
- GUS activity Fold-change relative to T0 (uninduced) (2 h): 4.3 fold
- GUS Activity Induced by SA (4 h): 72.5 pmol/mg protein/min
- GUS activity Fold-change relative to T0 (uninduced) (4 h): 6.0 fold
- GUS Activity Induced by SA (8 h): 194.9 pmol/mg protein/min
- GUS activity Fold-change relative to T0 (uninduced) (8 h): 16.2 fold
- GUS Activity Induced by SA (24 h): 205.4 pmol/mg protein/min
- GUS activity Fold-change relative to T0 (uninduced) (24 h): 17.0 fold
